Experimental data: US9884063B2, “Amido-substituted azole compounds” (Bayer Pharma Aktiengesellschaft, priority 2014, dated 2018)

Tests used:
TNKS2 = biological target: T1, TNKS2 (Homo sapiens, UniProt Q9H2K2); test: Modified TNKS2 Assay 2 (auto-parsylation, [3H]-NAD+ SPA); type: biochemical; settings: 6 nM TNKS2, 96 well
T1 sequence (Q9H2K2 1-1166): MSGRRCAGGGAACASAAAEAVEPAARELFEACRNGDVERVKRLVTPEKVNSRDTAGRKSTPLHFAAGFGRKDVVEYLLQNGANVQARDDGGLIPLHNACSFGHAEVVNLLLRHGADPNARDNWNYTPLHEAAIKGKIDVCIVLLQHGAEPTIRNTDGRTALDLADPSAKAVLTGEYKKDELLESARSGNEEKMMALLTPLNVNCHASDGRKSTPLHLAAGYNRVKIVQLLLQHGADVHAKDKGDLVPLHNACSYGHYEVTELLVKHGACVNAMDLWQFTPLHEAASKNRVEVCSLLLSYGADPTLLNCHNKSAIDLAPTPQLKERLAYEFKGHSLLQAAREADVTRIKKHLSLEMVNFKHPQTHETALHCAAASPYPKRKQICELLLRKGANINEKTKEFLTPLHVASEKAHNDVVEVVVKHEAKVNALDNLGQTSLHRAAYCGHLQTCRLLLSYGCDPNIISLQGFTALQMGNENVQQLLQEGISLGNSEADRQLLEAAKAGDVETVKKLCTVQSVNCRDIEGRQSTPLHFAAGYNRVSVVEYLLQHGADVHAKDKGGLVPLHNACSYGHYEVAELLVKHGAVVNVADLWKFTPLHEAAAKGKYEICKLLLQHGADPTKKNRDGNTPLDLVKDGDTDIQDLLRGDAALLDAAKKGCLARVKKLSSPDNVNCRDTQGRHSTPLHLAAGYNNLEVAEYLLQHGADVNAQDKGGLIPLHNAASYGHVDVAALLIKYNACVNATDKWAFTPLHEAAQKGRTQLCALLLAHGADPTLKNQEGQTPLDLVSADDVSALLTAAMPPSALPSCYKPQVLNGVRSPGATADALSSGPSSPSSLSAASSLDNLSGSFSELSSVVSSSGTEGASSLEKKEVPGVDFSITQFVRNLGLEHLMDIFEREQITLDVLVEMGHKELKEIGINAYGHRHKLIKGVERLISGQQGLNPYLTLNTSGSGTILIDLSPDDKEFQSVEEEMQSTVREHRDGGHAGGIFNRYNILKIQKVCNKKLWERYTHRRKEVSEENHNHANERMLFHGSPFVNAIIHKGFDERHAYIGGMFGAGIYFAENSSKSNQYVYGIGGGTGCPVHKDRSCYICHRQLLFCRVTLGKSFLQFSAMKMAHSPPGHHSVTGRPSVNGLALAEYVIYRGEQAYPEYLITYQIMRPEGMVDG

[1] = system: HEK293 FOP control reporter cell line; test: HEK293 FOP Assay (FOP control vector luciferase reporter); type: cell-based; settings: Homo sapiens
In short: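 Compound series 50 μM to 15 nM, 3.16-fold steps, were diluted in CAFTY buffer (pH 7.4, 2 mM Ca2+, 0.01% BSA) and tested alongside the TOP reporter line. Human Wnt-3a was added at 2500–5 ng/ml in two-fold steps. The control HEK293 line stably holds an FOP vector whose TCF elements are randomized and non-functional.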

[2] = system: wildtype Wnt signaling cascade; test: HEK293 TOP Assay (Super TopFlash luciferase reporter, Wnt-3a stimulated); type: cell-based; settings: Homo sapiens, HEK293, 16 h
In short: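 Compounds (50 μM down to 15 nM, 3.16-fold steps, in CAFTY buffer pH 7.4, 2 mM Ca2+, 0.01% BSA) tested in parallel on TOP and FOP HEK293 reporter lines to define selective wildtype Wnt inhibition. Pathway driven by recombinant human Wnt-3a applied at 2500–5 ng/ml in two-fold dilutions.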

[3] = HEK293 FOP control reporter cell line, 16 hours incubation, compound dilution series 50 μM to 15 nM
[4] = HEK293 FOP control reporter cells, 16 hours, luciferase, dilution series from 50 μM
[5] = HEK293 TOP reporter cell line, Wnt-3a at EC50, 16 hours incubation, compound dilution series 50 μM to 15 nM
[6] = HEK293 TOP reporter cells, Wnt3a at EC50, 16 hours, luciferase

| IC50 (TNKS2) | IC50 [2, 5] | IC50 [2, 6] | Compound | IC50 [1, 3] | IC50 [1, 4] |
| --- | --- | --- | --- | --- | --- |
| 3300 nM | 1200 nM | 1100 nM | CNC(=O)c1nc[nH]c1C(=O)Nc1ccc(NC(=O)c2cccc(Cl)c2Cl)cc1 [Example 1, N^5-{4-[(2,3-dichlorobenzoyl)amino]phenyl}-N^4-methyl-1H-imidazole-4,5-dicarboxamide] | 24000 nM | 25000 nM |
| > 10000 nM | 910 nM | 910 nM | CNC(=O)c1nc[nH]c1C(=O)Nc1ccc(NC(=O)c2ccc(N(C)C)cc2Cl)cc1 [Example 4, N^5-(4-{[2-chloro-4-(dimethylamino)benzoyl]amino}phenyl)-N^4-methyl-1H-imidazole-4,5-dicarboxamide] | 42000 nM | 42000 nM |
| 770 nM | 240 nM | 240 nM | CNC(=O)c1nc[nH]c1C(=O)Nc1ccc(NC(=O)c2ccc(F)cc2Cl)c(C)c1 [Example 5, N^5-{4-[(2-chloro-4-fluorobenzoyl)amino]-3-methylphenyl}-N^4-methyl-1H-imidazole-4,5-dicarboxamide] | 11000 nM | 11000 nM |
| 180 nM | 230 nM | 230 nM | CNC(=O)c1nc[nH]c1C(=O)Nc1ccc(NC(=O)c2ccncc2Cl)cc1 [Example 6, N^5-{4-[(3-chloroisonicotinoyl)amino]phenyl}-N^4-methyl-1H-imidazole-4,5-dicarboxamide] |  | ≥ 50000 nM |
| 80 nM | 140 nM | 150 nM | CNC(=O)c1nc[nH]c1C(=O)Nc1ccc(NC(=O)c2ccc(Cl)cc2Cl)cc1 [Example 9, N^5-{4-[(2,4-dichlorobenzoyl)amino]phenyl}-N^4-methyl-1H-imidazole-4,5-dicarboxamide] | 31500 nM | 40000 nM |
| 350 nM | 170 nM | 180 nM | CC(C)NC(=O)c1nc[nH]c1C(=O)Nc1ccc(NC(=O)c2ccc(F)cc2Cl)cc1 [Example 10, N^5-{4-[(2-chloro-4-fluorobenzoyl)amino]phenyl}-N^4-isopropyl-1H-imidazole-4,5-dicarboxamide] | 46000 nM | ≥ 50000 nM |
| 910 nM | 730 nM | 730 nM | CNC(=O)c1ncoc1C(=O)Nc1ccc(NC(=O)c2ccc(F)cc2Cl)cc1 [Example 11, N^5-{4-[(2-chloro-4-fluorobenzoyl)amino]phenyl}-N^4-methyl-1,3-oxazole-4,5-dicarboxamide] |  | ≥ 50000 nM |
| 60 nM | 140 nM | 150 nM | CNC(=O)c1nc[nH]c1C(=O)Nc1ccc(NC(=O)c2ccc(F)cc2Cl)cc1 [Example 12, N^5-{4-[(2-chloro-4-fluorobenzoyl)amino]phenyl}-N^4-methyl-1H-imidazole-4,5-dicarboxamide] |  | ≥ 50000 nM |
| 100 nM | 180 nM | 180 nM | CNC(=O)c1nc[nH]c1C(=O)Nc1ccc(NC(=O)c2ccc(F)cc2Cl)nc1 [Example 16, N^5-{6-[(2-chloro-4-fluorobenzoyl)amino]pyridin-3-yl}-N^4-methyl-1H-imidazole-4,5-dicarboxamide] |  | ≥ 50000 nM |
| 1800 nM | 1150 nM | 1250 nM | CNC(=O)c1nc[nH]c1C(=O)Nc1ccc(NC(=O)c2ccccc2C)cc1 [Example 19, N^4-methyl-N^5-{4-[(2-methylbenzoyl)amino]phenyl}-1H-imidazole-4,5-dicarboxamide] | 26500 nM | 11000 nM |
| > 10000 nM | 11200 nM | 3350 nM | CNC(=O)c1nc[nH]c1C(=O)Nc1ccc(NC(=O)c2ccc(F)cc2)cc1 [Example 20, N^5-{4-[(4-fluorobenzoyl)amino]phenyl}-N^4-methyl-1H-imidazole-4,5-dicarboxamide] | 40500 nM | 31000 nM |
| 3400 nM | 2130 nM | 2050 nM | CN(C)C(=O)c1nc[nH]c1C(=O)Nc1ccc(NC(=O)c2ccc(F)cc2Cl)cc1 [Example 24, N^5-{4-[(2-chloro-4-fluorobenzoyl)amino]phenyl}-N^4,N^4-dimethyl-1H-imidazole-4,5-dicarboxamide] |  | ≥ 50000 nM |
| 220 nM | 720 nM | 720 nM | CNC(=O)c1nc[nH]c1C(=O)Nc1ccc(NC(=O)c2ccc(OCCN(C)C)cc2Cl)cc1 [Example 25, N^5-[4-({2-chloro-4-[2-(dimethylamino)ethoxy]benzoyl}amino)phenyl]-N^4-methyl-1H-imidazole-4,5-dicarboxamide] | 34000 nM | 34000 nM |
| 1600 nM | 1350 nM | 800 nM | CNC(=O)c1nc[nH]c1C(=O)Nc1ccc(NC(=O)c2c(Cl)cccc2Cl)cc1 [Example 26, N^5-{4-[(2,6-dichlorobenzoyl)amino]phenyl}-N^4-methyl-1H-imidazole-4,5-dicarboxamide] |  | ≥ 50000 nM |
| 530 nM | 390 nM | 340 nM | CNC(=O)c1nc[nH]c1C(=O)Nc1ccc(NC(=O)c2ccccc2Cl)cc1 [Example 27, N^5-{4-[(2-chlorobenzoyl)amino]phenyl}-N^4-methyl-1H-imidazole-4,5-dicarboxamide] |  | ≥ 50000 nM |
| 180 nM | 530 nM | 680 nM | CNC(=O)c1nc[nH]c1C(=O)Nc1ccc(NC(=O)c2ccc(OCCN3CCN(C)CC3)cc2Cl)cc1 [Example 28, N^5-[4-({2-chloro-4-[2-(4-methylpiperazin-1-yl)ethoxy]benzoyl}amino)phenyl]-N^4-methyl-1H-imidazole-4,5-dicarboxamide] | 36000 nM | 42000 nM |
| 40 nM | 190 nM | 160 nM | O=C(Nc1ccc(NC(=O)c2[nH]cnc2C(=O)NCC(F)(F)F)cc1)c1ccc(F)cc1Cl [Example 30, N^4-{4-[(2-chloro-4-fluorobenzoyl)amino]phenyl}-N^5-(2,2,2-trifluoroethyl)-1H-imidazole-4,5-dicarboxamide] |  | 37500 nM |
| 430 nM | 750 nM |  | CNC(=O)c1nc[nH]c1C(=O)Nc1ccc(NC(=O)c2cnccc2Cl)cc1 [Example 254, N^5-(4-{[(4-chloropyridin-3-yl)carbonyl]amino}phenyl)-N^4-methyl-1H-imidazole-4,5-dicarboxamide] |  |  |
| 640 nM | 1240 nM |  | CCS(=N)(=O)c1ccc(C(=O)Nc2ccc(NC(=O)c3[nH]cnc3C(=O)NC)cc2)c(Cl)c1 (stereo not shown) [Example 255, N^5-(4-{[2-chloro-4-(S-ethylsulfonimidoyl)benzoyl]amino}phenyl)-N^4-methyl-1H-imidazole-4,5-dicarboxamide] |  |  |
| 10 nM | 900 nM |  | CCS(=N)(=O)c1ccc(C(=O)Nc2ccc(NC(=O)c3[nH]cnc3C(=O)NCCN3CCCCC3)cc2)c(Cl)c1 (stereo not shown) [Example 256, N^5-(4-{[2-chloro-4-(S-ethylsulfonimidoyl)benzoyl]amino}phenyl)-N^4-[2-(piperidin-1-yl)ethyl]-1H-imidazole-4,5-dicarboxamide] |  |  |
| 5000 nM | 2600 nM |  | CCNC(=O)c1nc[nH]c1C(=O)Nc1ccc(NC(=O)c2ccccc2S(C)(=O)=O)cc1 [Example 257, N^4-ethyl-N^5-(4-{[2-(methylsulfonyl)benzoyl]amino}phenyl)-1H-imidazole-4,5-dicarboxamide] |  |  |
